Read-outs that look alike come from different tables or passages of the source.
Key:
[1] = target: Trx-6×His-BCL6 (human BCL6 BTB domain covering amino-acid sequence 5-129) (Homo sapiens (Human), UniProt P41182); experiment: HTRF in vitro assay (BCL6 / BCOR-AF633 peptide); type: binding; settings: for IC50: read-out: HTRF pIC50 (converted)
Method: The % inhibition at each concentration was calculated by normalising FRET ratio to the appropriate high (DMSO with all reagents) and low (DMSO without BCL6) controls.

[2] = target: BCL6-NCOR2(SMRT) corepressor protein-protein interaction (Homo sapiens (Human), UniProt P41182); experiment: NanoBRET cell assay; type: cell-based; settings: transfected HEK293T cells, 6 hr; for IC50: read-out: NanoBRET cell pIC50 (converted)
Method: A cellular nano-Bioluminescence Resonance Energy Transfer (nanoBRET) assay (Promega NanoBRET Nano-Glo Detection System, catalogue number N1662) was used to detect inhibition of the BCL6-NCOR2(SMRT) corepressor protein-protein interaction. DNA encoding full length BCL6 and NCOR2 were inserted into pFC32K.NanoLuc and pFC14K.HaloTag vectors (Promega) to produce C-terminal tagged fusion proteins BCL6-nanoLuc and NCOR2-HaloTag, respectively. HEK293T cells were plated (5×10^5) in T75 tissue culture flask and bulk transfected 48 hours later with Fugene 6 (Promega cat. #E2691) reagent and 18 μg total DNA plasmids encoding BCL6-nanoLuc as donor and NCOR2-HaloTag as acceptor, at a donor:acceptor DNA ratio of 1:25. At 24 hr post-transfection, HEK293T cells were collected and stored in liquid nitrogen in 90% FBS (PAN Biotech UK) and 10% DMSO. […] Frozen transfected HEK293T cells were thawed, centrifuged and freezing medium was replaced by phenol red-free OptiMEM+4% FBS (Life Technology). […] Cells were incubated for 6 hr at 37° C./5% C02 then NanoBRET furimazine substrate (Promega) was added to give a final concentration of 10 μM. After a short centrifugation the plates were read on an Envision (Perkin Elmer) plate reader equipped with a LUM/D600 Dual mirror, Lum 450/40 nm bandpass and D605 nm longpass filters, with a 0.2 sec reading to determine the BRET ratio. The % inhibition at each test concentration was calculated by normalising the BRET ratio to the appropriate high and low controls.

[3] = further generated data, 1 nM Trx-6×His-BCL6, 300 nM BCOR-AF633 peptide, 0.5 nM anti-6×His-Terbium cryptate
[4] = initially generated data, 10 nM Trx-6×His-BCL6, 300 nM BCOR-AF633 peptide, 1 nM anti-6×His-Terbium cryptate

Cn1c(=O)n(CCC(C)(C)O)c2cc(Nc3nc(N4[C@@H]5CCC[C@H]4CC5)ncc3Cl)ccc21 [Example 35m, 5-((2-((1R,5S)-8-azabicyclo[3.2.1]octan-8-yl)-5-chloropyrimidin-4-yl)amino)-3-(3-hydroxy-3-methylbutyl)-1-methyl-1,3-dihydro-2H-benzo[d]imidazol-2-one]
HTRF pIC50 [1, 3]: 6.81 | IC50 ([2]; further generated data): 741 nM

CNC(=O)c1cc(Nc2ccc3c(c2)n(CCC(C)(C)O)c(=O)n3C)c(C#N)c(Cl)n1 [Example 1a, 6-Chloro-5-cyano-4-[[3-(3-hydroxy-3-methyl-butyl)-1-methyl-2-oxo-benzimidazol-5-yl]amino]-N-methyl-pyridine-2-carboxamide]
HTRF pIC50 [1, 3]: 6.22 | HTRF pIC50 [1, 4]: 6.48 | NanoBRET cell pIC50 ([2]; further generated data): 5.45 | IC50 ([2]; initially generated data): 3550 nM

Cn1c(=O)n(CCC(C)(C)O)c2cc(Nc3nc(-n4ccc(C(F)(F)F)n4)ncc3Cl)ccc21 [Example 15d]
HTRF pIC50 [1, 3]: 6.41 | IC50 ([2]; further generated data): 1290 nM

Cc1cc(C)n(-c2ncc(Cl)c(Nc3ccc4c(c3)n(CCC(C)(C)O)c(=O)n4C)n2)n1 [Example 15a, 5-[[5-Chloro-2-(3,5-dimethylpyrazol-1-yl)pyrimidin-4-yl]amino]-3-(3-hydroxy-3-methyl-butyl)-1-methyl-benzimidazol-2-one]
HTRF pIC50 [1, 3]: 6.61 | HTRF pIC50 [1, 4]: 6.56 | IC50 ([2]; further generated data): 1780 nM | IC50 ([2]; initially generated data): 2040 nM

CC(C)(O)CCn1c(=O)n(CCC(C)(C)O)c2ncc(Nc3nc(N4CC(C)(C)OC(C)(C)C4)ncc3Cl)cc21 [Example 35q, 6-((5-chloro-2-(2,2,6,6-tetramethylmorpholino)pyrimidin-4-yl)amino)-1,3-bis(3-hydroxy-3-methylbutyl)-1,3-dihydro-2H-imidazo[4,5-b]pyridin-2-one]
HTRF pIC50 [1, 3]: 6.63 | IC50 ([2]; further generated data): 1700 nM

COCC(C)(O)CCn1c(=O)n(C)c2ccc(Nc3nc(N4CCC(C(=O)N(C)C)CC4)ncc3Cl)cc21 (stereo not shown) [Example 15i]
HTRF pIC50 [1, 3]: 6.75 | IC50 ([2]; further generated data): 2190 nM

Cn1c(=O)n(CCC(C)(C)O)c2cc(Nc3nc(-c4n[nH]c5ccccc45)ncc3Cl)ccc21 [Example 17a, 5-((5-chloro-2-(1H-indazol-3-yl)pyrimidin-4-yl)amino)-3-(3-hydroxy-3-methylbutyl)-1-methyl-1,3-dihydro-2H-benzo[d]imidazol-2-one]
IC50 [1, 3]: 537 nM | IC50 ([2]; further generated data): 1150 nM

Cn1c(=O)n(CCC(C)(C)O)c2cc(Nc3nc(N4CCOC(C(F)(F)F)C4)ncc3Cl)ccc21 (stereo not shown) [Example 28b, 5-((5-chloro-2-(2-(trifluoromethyl)morpholino)pyrimidin-4-yl)amino)-3-(3-hydroxy-3-methylbutyl)-1-methyl-1,3-dihydro-2H-benzo[d]imidazol-2-one]
HTRF pIC50 [1, 3]: 6.55 | IC50 ([2]; further generated data): 2190 nM

Cc1cc(C)n(-c2cc(Nc3ccc4c(c3)n(CCC(C)(C)O)c(=O)n4C)c(Cl)cn2)n1 [Example 30a, 5-((5-chloro-2-(3,5-dimethyl-1H-pyrazol-1-yl)pyridin-4-yl)amino)-3-(3-hydroxy-3-methylbutyl)-1-methyl-1,3-dihydro-2H-benzo[d]imidazol-2-one]
HTRF pIC50 [1, 3]: 6.09 | IC50 ([2]; further generated data): 3090 nM

CN(C)C(=O)C1CCN(c2ncc(Cl)c(Nc3ccc4c(c3)n(CCC(C)(C)O)c(=O)n4C)n2)CC1 [Example 20c]
HTRF pIC50 [1, 3]: 6.60 | IC50 ([2]; further generated data): 2140 nM

C[C@@H]1CN(c2ncc(Cl)c(Nc3ccc4c(c3)n(CCC(C)(C)O)c(=O)n4C)n2)C[C@@H](C2CC2)O1 [Example 21b, 5-((5-chloro-2-((2R,6R)-2-cyclopropyl-6-methylmorpholino)pyrimidin-4-yl)amino)-3-(3-hydroxy-3-methylbutyl)-1-methyl-1,3-dihydro-2H-benzo[d]imidazol-2-one]
HTRF pIC50 [1, 3]: 7.01 | IC50 ([2]; further generated data): 1380 nM

Cn1c(=O)n(CCC(C)(C)O)c2cc(Nc3nc(-n4ncc5ccccc54)ncc3Cl)ccc21 [Example 17b, 5-((5-chloro-2-(1H-indazol-1-yl)pyrimidin-4-yl)amino)-3-(3-hydroxy-3-methylbutyl)-1-methyl-1,3-dihydro-2H-benzo[d]imidazol-2-one]
HTRF pIC50 [1, 3]: 6.21 | IC50 ([2]; further generated data): 1910 nM

CCC(C)(O)CCn1c(=O)n(C)c2ccc(Nc3nc(N4CCC(C(=O)N(C)C)CC4)ncc3Cl)cc21 (stereo not shown) [Example 15l]
HTRF pIC50 [1, 3]: 6.63 | IC50 ([2]; further generated data): 1320 nM

CC(C)(O)CCn1c(=O)n(CCC(C)(C)O)c2cc(Nc3nc(N4CC(C)(C)OC(C)(C)C4)ncc3Cl)ccc21 [Example 35k, 5-((5-chloro-2-(2,2,6,6-tetramethylmorpholino)pyrimidin-4-yl)amino)-1,3-bis(3-hydroxy-3-methylbutyl)-1,3-dihydro-2H-benzo[d]imidazol-2-one]
HTRF pIC50 [1, 3]: 6.56 | IC50 ([2]; further generated data): 1480 nM

COCC1CCCN(c2ncc(Cl)c(Nc3ccc4c(c3)n(CCC(C)(C)O)c(=O)n4C)n2)C1 (stereo not shown) [Example 35v, 5-((5-chloro-2-(3-(methoxymethyl)piperidin-1-yl)pyrimidin-4-yl)amino)-3-(3-hydroxy-3-methylbutyl)-1-methyl-1,3-dihydro-2H-benzo[d]imidazol-2-one]
HTRF pIC50 [1, 3]: 6.70 | IC50 ([2]; further generated data): 2340 nM

Cc1cc(Nc2ccc3c(c2)n(CCC(C)(C)O)c(=O)n3C)c(C#N)c(Cl)n1 [Example 1b, 2-chloro-4-[[3-(3-hydroxy-3-methyl-butyl)-1-methyl-2-oxo-benzimidazol-5-yl]amino]-6-methyl-pyridine-3-carbonitrile]
HTRF pIC50 [1, 4]: 6.09 | NanoBRET cell pIC50 ([2]; further generated data): 5.28 | IC50 ([2]; initially generated data): 5250 nM

C[C@@H]1CN(c2ncc(Cl)c(Nc3ccc4c(c3)n(CCC(C)(C)O)c(=O)n4C)n2)C[C@H](C2CC2)O1 [Example 21a, 5-((5-chloro-2-((2S,6R)-2-cyclopropyl-6-methylmorpholino)pyrimidin-4-yl)amino)-3-(3-hydroxy-3-methylbutyl)-1-methyl-1,3-dihydro-2H-benzo[d]imidazol-2-one]
IC50 [1, 3]: 100 nM | IC50 ([2]; further generated data): 1350 nM

Cn1c(=O)n(CCC(C)(C)O)c2cc(Nc3nc(N4C5CC6CC(C5)CC4C6)ncc3Cl)ccc21 [Example 35t, 5-((2-((1r,3r,5r,7r)-2-azaadamantan-2-yl)-5-chloropyrimidin-4-yl)amino)-3-(3-hydroxy-3-methylbutyl)-1-methyl-1,3-dihydro-2H-benzo[d]imidazol-2-one]
HTRF pIC50 [1, 3]: 6.46 | IC50 ([2]; further generated data): 2340 nM

C[C@@H]1CN(c2ncc(Cl)c(Nc3ccc4c(c3)n(CCC(C)(C)O)c(=O)n4C)n2)C[C@H](C)N1C [Example 35l, 5-((5-chloro-2-((3S,5R)-3,4,5-trimethylpiperazin-1-yl)pyrimidin-4-yl)amino)-3-(3-hydroxy-3-methylbutyl)-1-methyl-1,3-dihydro-2H-benzo[d]imidazol-2-one]
HTRF pIC50 [1, 3]: 6.76 | IC50 ([2]; further generated data): 1510 nM

Cc1nn(-c2ncc(Cl)c(Nc3ccc4c(c3)n(CCC(C)(C)O)c(=O)n4C)n2)c(C)c1Cl [Example 15n]
HTRF pIC50 [1, 3]: 6.35 | IC50 ([2]; further generated data): 1820 nM

Cn1c(=O)n(CCC(C)(C)O)c2cc(Nc3nc(N4CCC(C(F)(F)F)CC4)ncc3Cl)ccc21 [Example 35g, 5-((5-chloro-2-(4-(trifluoromethyl)piperidin-1-yl)pyrimidin-4-yl)amino)-3-(3-hydroxy-3-methylbutyl)-1-methyl-1,3-dihydro-2H-benzo[d]imidazol-2-one]
HTRF pIC50 [1, 3]: 6.12 | IC50 ([2]; further generated data): 2240 nM

C[C@@H]1C[C@H](O)CN(c2ncc(Cl)c(Nc3ccc4c(c3)n(CCC(C)(C)O)c(=O)n4C)n2)C1 [Example 35x, 5-((5-chloro-2-((3S,5R)-3-hydroxy-5-methylpiperidin-1-yl)pyrimidin-4-yl)amino)-3-(3-hydroxy-3-methylbutyl)-1-methyl-1,3-dihydro-2H-benzo[d]imidazol-2-one]
HTRF pIC50 [1, 3]: 7.01 | IC50 ([2]; further generated data): 3160 nM

CCOC(=O)c1c(C)nn(-c2ncc(Cl)c(Nc3ccc4c(c3)n(CCC(C)(C)O)c(=O)n4C)n2)c1C [Example 15c]
HTRF pIC50 [1, 3]: 6.22 | IC50 ([2]; further generated data): 2040 nM

CNC(=O)c1cc(Nc2ccc3c(c2)n(CC[C@@H](C)O)c(=O)n3C)c(C#N)c(Cl)n1 [Example 4, 6-Chloro-5-cyano-4-[[3-[(3R)-3-hydroxybutyl]-1-methyl-2-oxo-benzimidazol-5-yl]amino]-N-methyl-pyridine-2-carboxamide]
HTRF pIC50 [1, 3]: 5.79 | HTRF pIC50 [1, 4]: 5.99 | NanoBRET cell pIC50 ([2]; further generated data): 5.20 | IC50 ([2]; initially generated data): 6310 nM

From patent US12110286B2, “Benzimidazolone derived inhibitors of BCL6” (Cancer Research Technology Limited, priority 2017, dated 2024)
